Experimental data: patent publication US20190290671A1, “HYPOLIPIDEMIC EFFECTS OF COMPOSITIONS COMPRISING BETA-GLUCOGALLIN” (priority 2018, published 2019)

Test: body weight of high fat diet fed rats
Format: in vivo, Albino Rat (Wistar)
Conditions: HFD + 3 mg/kgbw
Method: Performance of the Test • Feed: The animals were fed with Normal diet (9 kcal/day) and High fat diet (50 kcal/day) throughout the acclimatization and experimental period. The normal diet and High Fat diet were prepared as follows.
Body weight of the animals was recorded in 0th, 15th, 25th, 40th, 60th and 84th day of experimental period. At 0th day, 1 ml Tail blood was collected from each animal of all the groups and serum was separated. At the end of the experimental period (84th day), the animals were sacrificed by cervical dislocation. Blood was collected and serum was separated by centrifugation and used for the analysis of biochemical parameters.
The test item was administered through oral route by gavage.
Experimental Methods • Measurement of Body weight • Estimation of Cholesterol (CHOD/POD Method) • Estimation of Triglycerides (GPO/POD Method) • Estimation of HDL Cholesterol (HDL Cholesterol Direct Reagent Kit, Beacon) • Determination of LDL Cholesterol (LDL Cholesterol Direct Reagent Kit, Beacon)

Structure (SMILES): CC(C)c1c(C(=O)Nc2ccccc2)c(-c2ccccc2)c(-c2ccc(F)cc2)n1CC[C@@H](O)C[C@@H](O)CC(=O)O [STATIN, Atrovastin]
- Mean Body Weight (0th Day): 108.33 ± 6.83 g
- Mean Body Weight (15th Day): 127.50 ± 6.90 g
- Mean Body Weight (25th Day): 139.16 ± 5.84 g
- Mean Body Weight (40th Day): 155.83 ± 7.35 g
- Mean Body Weight (60th Day): 165.83 ± 9.70 g
- Mean Body Weight (84th Day): 172.50 ± 9.35 g
